Measurements reported in the NIST ThermoML archive (doi:10.1016/j.jct.2011.11.004).
Several values for one entry are separate records, joined by “and”; a condition that tells them apart may be missing. Identical values can stand only once.

Conditions: Liquid, Transpiration method

CN(C)CCCN(C)C [N,N,N',N'-tetramethyl-1,3-propanediamine]
Conditions | vapor or sublimation pressure
273.5 K | 0.1509 kPa and 0.1417 kPa
274.2 K | 0.1541 kPa
275 K | 0.1633 kPa
275.6 K | 0.1714 kPa
276.1 K | 0.1754 kPa
276.6 K | 0.1837 kPa
277.1 K | 0.191 kPa
278.4 K | 0.2056 kPa
279.2 K | 0.2168 kPa
281.1 K | 0.2546 kPa
283.4 K | 0.2873 kPa and 0.3004 kPa
285.8 K | 0.3528 kPa
287.6 K | 0.4012 kPa
289 K | 0.455 kPa
294.3 K | 0.6329 kPa
295.7 K | 0.6783 kPa
299.2 K | 0.8136 kPa and 0.8194 kPa
300.8 K | 0.9386 kPa
304.3 K | 1.143 kPa
305.8 K | 1.227 kPa and 1.226 kPa
309.1 K | 1.435 kPa
310.8 K | 1.654 kPa
310.9 K | 1.663 kPa
315.6 K | 2.117 kPa and 2.069 kPa and 2.116 kPa
323.1 K | 3.214 kPa

CCN(CC)CCCN [N,N-diethylpropane-1,3-diamine]
Conditions | vapor or sublimation pressure
277.2 K | 0.03765 kPa
279.1 K | 0.04448 kPa
280.2 K | 0.04785 kPa
283.2 K | 0.06153 kPa
286.2 K | 0.07622 kPa
287.7 K | 0.08442 kPa
288.2 K | 0.09379 kPa
289.2 K | 0.09614 kPa
291.1 K | 0.1087 kPa and 0.1173 kPa
292.1 K | 0.1195 kPa
293.2 K | 0.1316 kPa
295.2 K | 0.1494 kPa and 0.1591 kPa
297.2 K | 0.17 kPa
297.3 K | 0.1835 kPa and 0.1811 kPa
297.4 K | 0.1872 kPa
297.5 K | 0.1799 kPa
298.2 K | 0.1935 kPa
299.4 K | 0.2021 kPa
299.5 K | 0.2132 kPa
301.2 K | 0.2397 kPa
303.1 K | 0.274 kPa and 0.2527 kPa
303.3 K | 0.2637 kPa
305.1 K | 0.3138 kPa

CN(C)CCCN [N,N-dimethyl-1,3-propanediamine]
Conditions | vapor or sublimation pressure
273.5 K | 0.1753 kPa
273.8 K | 0.1802 kPa
274.2 K | 0.1875 kPa
275.8 K | 0.2076 kPa
275.9 K | 0.2029 kPa
276.4 K | 0.2181 kPa
277.8 K | 0.2407 kPa
278.1 K | 0.2481 kPa
278.4 K | 0.2539 kPa
281.1 K | 0.2962 kPa
281.4 K | 0.3109 kPa
283.4 K | 0.3594 kPa and 0.3558 kPa and 0.3618 kPa
285.8 K | 0.4176 kPa
286.2 K | 0.4454 kPa
288.1 K | 0.5012 kPa and 0.4936 kPa
288.7 K | 0.5167 kPa
288.8 K | 0.5086 kPa
289.2 K | 0.5356 kPa and 0.538 kPa
291.7 K | 0.628 kPa
292.1 K | 0.6355 kPa and 0.6539 kPa
293 K | 0.6977 kPa
294.9 K | 0.7794 kPa
295.2 K | 0.8075 kPa
296.9 K | 0.8821 kPa
297.8 K | 0.9313 kPa
298.2 K | 0.981 kPa
298.9 K | 1.011 kPa
299.7 K | 1.058 kPa

CNCCCN [N-methyl-1,3-diaminopropane]
Conditions | vapor or sublimation pressure [kPa]
276.2 K | 0.09113
279.3 K | 0.1163
282.3 K | 0.1481
285.2 K | 0.1855
288.2 K | 0.2287
291.2 K | 0.2973
292.7 K | 0.3328
294.1 K | 0.3667
297.1 K | 0.4634
298.8 K | 0.5298
300.2 K | 0.5889
303.2 K | 0.7223
